For experiment [1], the target named is Carbonic anhydrase 9 (Homo sapiens, UniProt Q16790).
Description: Binding affinity to human CA9 assessed as inhibition constant
The target in experiment [2] is T1, Carbonic anhydrase 12 (Homo sapiens, UniProt O43570).
Description: Binding affinity to human CA12 assessed as inhibition constant
Experiment [3] has as its target T1, Carbonic anhydrase 12. The source holds these as a separate data set.
Description: Inhibition of human carbonic anhydrase 12 preincubated for 15 mins followed by substrate addition and measured after 30 mins by spectrophotometric method

Each structure is given as a SMILES string.

A word on the Ki: it is the equilibrium dissociation constant of an inhibitor or competing ligand from its target. Low readings indicate tighter binding, high ones weaker binding. The term IC50 denotes the point on the concentration scale where inhibition reaches its midpoint. Low readings indicate greater potency, high ones weaker potency.

T1 sequence (O43570 whole entry): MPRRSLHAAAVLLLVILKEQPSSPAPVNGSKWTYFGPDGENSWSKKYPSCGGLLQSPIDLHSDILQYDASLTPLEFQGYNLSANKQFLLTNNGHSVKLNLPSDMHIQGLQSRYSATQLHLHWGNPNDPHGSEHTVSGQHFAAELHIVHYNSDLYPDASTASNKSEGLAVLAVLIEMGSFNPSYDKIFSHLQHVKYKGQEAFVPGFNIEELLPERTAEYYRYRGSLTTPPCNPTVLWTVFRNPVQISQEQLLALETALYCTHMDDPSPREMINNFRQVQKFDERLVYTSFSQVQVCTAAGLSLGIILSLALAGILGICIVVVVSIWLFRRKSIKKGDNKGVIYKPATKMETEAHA

For the compound `CCOC(=O)c1cc(-c2ccc(C)cc2)n(-c2ccc(S(N)(=O)=O)cc2)n1`, the Ki in experiment [1] was 176 nM. This counts as sub-micromolar.

As for `NS(=O)(=O)c1ccc(C(=O)N/N=C/c2ccccc2O)cc1`, the Ki was 18.9 nM in experiment [1] and 32.7 nM in experiment [2].

As for `CCn1c(-c2cc(C(=O)O)[nH]n2)cc2ccccc21`, the Ki in experiment [1] came out at 7.79 nM; in experiment [2] it was 7.78 nM.

As to `CCOC(=O)c1cc(-c2ccc([N+](=O)[O-])cc2)n(-c2ccc(S(N)(=O)=O)cc2)n1`, the Ki in experiment [1] turned out to be 20.5 nM.

`Cc1ccc(-c2nn(-c3ccc(S(N)(=O)=O)cc3)cc2/C=N/Nc2ccc(S(N)(=O)=O)cc2)cc1` gave an IC50 in experiment [3] of 144 nM. This counts as sub-micromolar.

`CCOC(=O)c1cc(-c2ccccc2)n(-c2ccc(S(N)(=O)=O)cc2)n1` returned a Ki in experiment [1] of 225 nM. In other words, the sub-micromolar range.

The values above are taken from ChEMBL document CHEMBL5634115, “Exploring novel anticancer pyrazole benzenesulfonamides featuring tail approach strategy as carbonic anhydrase inhibitors” (Eur J Med Chem, 2023).
